Paper PMC7170299, “Design, synthesis, molecular modelling and biological evaluation of novel 3-(2-naphthyl)-1-phenyl-1H-pyrazole derivatives as potent antioxidants and 15-Lipoxygenase inhibitors” (Journal of Enzyme Inhibition and Medicinal Chemistry, 2020)

How the values were obtained:
[1] = NO scavenging assay (sodium nitroprusside / Griess reagent); conditions: for NO IC50: mean ± SEM of three experiments, 90 min, 546 nm
Protocol: The NO scavenging activity of all synthesized compounds was measured as previously described by Ho et al.[50] Briefly, 50 µL of different concentrations of the tested compounds (12.5, 25, 50,100, and 200 µg/mL) were pipetted into a 96-well plate. Then, 50 µL of 10-mM sodium nitroprussides dissolved in phosphate-buffered saline PBS (pH 7.4) were added to each well and the plate was incubated for 90 min at room temperature. Next, an equal volume of Griess reagent (1% of sulphanilamide and 0.1% of naphthyl ethylene diamine in 2.5% […]) was added to each well to measure the nitrite content. The absorbance of the formed pink-coloured chromophore was measured at λ 546 nm. DMSO and ascorbic acid were used as the negative and positive control, respectively. All tests were performed in triplicate. The percentage of NO scavenging activity was calculated according to the following equation: % of NO scavenging=[(Acontrol−Asample)/Acontrol]×100 where Acontrol is the absorbance of the control reaction (with all reagents except the test compound), and Asample is the absorbance of the test sample.

[2] = Superoxide scavenging assay (pyrogallol autoxidation); conditions: mean ± SEM of three experiments; pyrogallol autoxidation, 325 nm
Protocol: The improved pyrogallol autoxidation method was used to determine O2^−. RSA of all synthesized compounds as previously described. Briefly, 50 µL of test compounds (12.5, 25, 50,100, and 200 µg/mL) was added to 2900 µl of […] Tris HCl buffer (0.05 M, pH 7.4) containing 1-mM Na2EDTA. Next, 50 µL of 60-mM pyrogallol in1mM HCl had been thoroughly mixed with the mixture. The absorbance of the reaction mixture was measured at A325 nm every 30 s for 5 min. O2^− RSA was expressed by the oxidation degree of a test group in comparison to that of the control. The absorbance at 325 nm was measured against the Tris-HCl buffer every 30 s for 5 min. The percentage of scavenging effect was calculated using the following equation: O2^− radical scavenging %=[(ΔA325, control/T)−(ΔA325nm, sample/T)/ΔA325nm, control/T]×100 where ΔA325 nm, control is the increase in A325 nm of the reaction mixture without the sample and ΔA325 nm, sample is that for the mixture with the sample; T=5 min. The experiments were performed in triplicate.

[3] = DPPH radical scavenging assay; conditions: mean ± SEM of three experiments; 30 min, 517 nm
Protocol: The DPPH scavenging activity of all synthesized compounds was measured as previously described by Nahar et al.[48] with some modifications. Briefly, 100 µL of different concentrations of the tested compounds (12.5, 25, 50, 100, and 200 µg/mL) were pipetted into a 96-well plate. Then, 100 µL of 100-µM DPPH methanolic solution were added to each well and the plate was incubated protected from light at room temperature for 30 min. The absorbance of the solution was measured at λ517 nm.[49] Ascorbic acid was used as the positive control while DMSO was the negative control. The percentage of DPPH scavenging activity was calculated according to the following equation: % of DPPH scavenging=[(Acontrol–Asample)/Acontrol] ×100, where Acontrol is the absorbance of the control reaction (with all reagents except the test compound), and Asample is the absorbance of the test sample. […] All tests were performed in triplicates.

Soybean 15-LOX enzyme = molecular target: T1, Soybean 15-LOX enzyme (Glycine max, UniProt P08170); assay: In vitro lipoxygenase inhibition (Cayman lipoxygenase inhibitor screening assay kit); type: biochemical; conditions: mean ± SEM of three experiments; substrate arachidonic acid
T1 construct: purchased Cayman Chemical 760700
T1 sequence (P08170 1-839): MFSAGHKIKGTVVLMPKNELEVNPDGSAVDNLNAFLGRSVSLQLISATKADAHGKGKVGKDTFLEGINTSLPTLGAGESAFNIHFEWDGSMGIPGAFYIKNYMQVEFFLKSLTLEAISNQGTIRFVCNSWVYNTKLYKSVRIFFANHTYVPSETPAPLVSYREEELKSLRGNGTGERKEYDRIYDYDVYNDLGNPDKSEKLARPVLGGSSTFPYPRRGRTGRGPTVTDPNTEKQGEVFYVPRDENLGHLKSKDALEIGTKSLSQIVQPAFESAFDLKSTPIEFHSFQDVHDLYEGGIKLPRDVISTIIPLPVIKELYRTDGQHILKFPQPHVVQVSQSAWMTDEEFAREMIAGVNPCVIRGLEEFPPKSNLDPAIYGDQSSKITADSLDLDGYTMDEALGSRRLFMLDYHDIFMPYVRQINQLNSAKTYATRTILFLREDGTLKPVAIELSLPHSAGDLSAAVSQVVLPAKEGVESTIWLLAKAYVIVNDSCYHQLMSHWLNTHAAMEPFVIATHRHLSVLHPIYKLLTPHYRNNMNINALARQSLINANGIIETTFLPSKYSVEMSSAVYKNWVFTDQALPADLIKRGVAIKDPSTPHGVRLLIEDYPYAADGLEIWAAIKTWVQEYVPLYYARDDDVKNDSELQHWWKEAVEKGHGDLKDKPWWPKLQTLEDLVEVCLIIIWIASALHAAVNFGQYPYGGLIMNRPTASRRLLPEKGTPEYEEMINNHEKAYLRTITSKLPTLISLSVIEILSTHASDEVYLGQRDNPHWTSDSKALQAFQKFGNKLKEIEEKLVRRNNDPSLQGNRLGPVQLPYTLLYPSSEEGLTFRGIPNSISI
Protocol: The assay was performed using Cayman’s lipoxygenase inhibitor screening assay kit (Catalog No. 760700, Cayman Chemical, USA) according to the manufacturer’s instructions. Briefly, 90 µL of 15-LOX was pipetted into a 96-well plate. Next, 10 µL of test compound at concentrations (2.5, 5.0 and 10 µM) dissolved in DMSO were added to each well. The reaction was initiated by adding 10 µL substrate (AA) and the plate was placed on a shaker for at least 5 minutes. Finally, 100 µL of chromogen (prepared according to manufacturer’s instructions) was added to each well to stop enzyme catalysis and develop the reaction. 100 µL of Assay buffer (0.1 M Tris-HCl, pH7.4) was used in blank wells. […] The absorbance of the solution was measured at λ 490–500 nm. The percentage inhibition was calculated according to the following equation: % inhibition =[(IA−Ainhibitor sample)/IA]×100 where (IA) is the 100% initial activity and (Ainhibitor sample) is the absorbance of the test sample. Dose–response curve was plotted between % inhibition and the drug concentration. The non-linear dose–response curve was used for calculating drug concentration showing 50% enzyme inhibition.

Structure (SMILES) | NO IC50 [1] | Superoxide IC50 [2] | DPPH IC50 [3] | melting point | IC50 (Soybean 15-LOX enzyme) | NO scavenging potency relative to ascorbic acid ([1]; folds that of ascorbic acid)
Clc1ccc(C2=NOC(c3cn(-c4ccccc4)nc3-c3ccc4ccccc4c3)C2)cc1 (stereo not drawn) [Compound 5d, 3-(4-Chlorophenyl)-5-(3-naphthalen-2-yl-1-phenyl-1H-pyrazol-4-yl)-4,5-dihydro isoxazole] | >200 µg/mL | >200 µg/mL | >200 µg/mL | 185 to 186 °C |  | 
O=C(/C=C/c1cn(-c2ccccc2)nc1-c1ccc2ccccc2c1)c1ccc(Cl)cc1 [Compound 2d, 1-(4-chlorophenyl)-3-(3-naphthalen-2-yl-1-phenyl-1H-pyrazol-4-yl)propenone] | >200 µg/mL | >200 µg/mL | >200 µg/mL | 161 to 162 °C |  | 
Clc1ccc(C2=NOC(c3cn(-c4ccccc4)nc3-c3ccc4ccccc4c3)C2)cc1Cl (stereo not drawn) [Compound 5e, 3-(3,4-Dichlorophenyl)-5-(3-naphthalen-2-yl-1-phenyl-1H-pyrazol-4-yl)-4,5-dihydro isoxazole] | 96.56 ± 1.4 µg/mL | 168.77 ± 1.42 µg/mL | 38.44 ± 1.28 µg/mL | 187 to 189 °C | 3 ± 0.06 µM | 
Cc1ccc(C(=O)/C=C/c2cn(-c3ccccc3)nc2-c2ccc3ccccc3c2)cc1 [Compound 2c, 3-(3-Naphthalen-2-yl-1-phenyl-1H-pyrazol-4-yl)-1-p-tolyl propenone] | >200 µg/mL | >200 µg/mL | 192.70 ± 1.63 µg/mL | 146 to 147 °C | 2.8 ± 0.06 µM | 
O=C(/C=C/c1cn(-c2ccccc2)nc1-c1ccc2ccccc2c1)c1ccccc1 [Compound 2a, 3-(3-Naphthalen-2-yl-1-phenyl-1H-pyrazole-4-yl)-1-phenyl propenone] | >200 µg/mL | >200 µg/mL | >200 µg/mL | 158 to 159 °C |  | 
Clc1ccc(C2=NN(c3ccccc3)C(c3cn(-c4ccccc4)nc3-c3ccc4ccccc4c3)C2)cc1 (stereo not drawn) [Compound 4d, 5-(4-Chlorophenyl)-3′-naphthalen-2-yl-2,1′-diphenyl-3,4-dihydro-2H,1'H-[3,4′] bipyrazole] | >200 µg/mL | >200 µg/mL | >200 µg/mL | 192 to 193 °C |  | 
COc1ccc(C(=O)/C=C/c2cn(-c3ccccc3)nc2-c2ccc3ccccc3c2)cc1 [Compound 2b, 1-(4-Methoxyphenyl)-3-(3-naphthalen-2-yl-1-phenyl-1H-pyrazole-4-yl)-propenone] | 78.25 ± 1.25 µg/mL | >200 µg/mL | 182.17 ± 0.99 µg/mL | 187 to 188 °C | 3.13 ± 0.09 µM | 
Cc1ccc(C2=NNC(c3cn(-c4ccccc4)nc3-c3ccc4ccccc4c3)C2)cc1 (stereo not drawn) [Compound 3c, 3’-Naphthalen-2-yl-1’-phenyl-5-p-tolyl-3,4-dihydro-2H, 1’H -[3,4’]bipyrazole] | >200 µg/mL | >200 µg/mL | 12.06 ± 1.17 µg/mL | 187 to 188 °C | 3.77 ± 0.07 µM | 
Clc1ccc(C2=NNC(c3cn(-c4ccccc4)nc3-c3ccc4ccccc4c3)C2)cc1Cl (stereo not drawn) [Compound 3e, 5-(3,4-Dichlorophenyl)-3′-naphthalen-2-yl-1′-phenyl-3,4-dihydro-2H,1’H-[3,4′]-bipyrazole] | 175.72 ± 1.41 µg/mL | 129.12 ± 0.82 µg/mL | 9.63 ± 0.55 µg/mL | 195 to 196 °C | 2.53 ± 0.07 µM | 
O=C(/C=C/c1cn(-c2ccccc2)nc1-c1ccc2ccccc2c1)c1ccc(Cl)c(Cl)c1 [Compound 2e, 1-(3,4-Dichlorophenyl)-3-(3-naphthalen-2-yl-1-phenyl-1H-pyrazol-4-yl)propenone] | 11.04 ± 0.72 µg/mL | >200 µg/mL | 118.99 ± 1.78 µg/mL | 168 to 169 °C | 4.63 ± 0.09 µM | 3.4 folds
c1ccc(C2=NOC(c3cn(-c4ccccc4)nc3-c3ccc4ccccc4c3)C2)cc1 (stereo not drawn) [Compound 5a, 5-(3-Naphthalen-2-yl-1-phenyl-1H-pyrazol-4-yl)-3-phenyl-4,5-dihydro-isoxazole] | 37.5 ± 1.36 µg/mL | 192.37 ± 1.74 µg/mL | 97.17 ± 1.4 µg/mL | 190 to 191 °C | 5.53 ± 0.07 µM | 
COc1ccc(C2=NNC(c3cn(-c4ccccc4)nc3-c3ccc4ccccc4c3)C2)cc1 (stereo not drawn) [Compound 3b, 5-(4-Methoxyphenyl)-3′-naphthalen-2-yl-1′-phenyl-3,4-dihydro-2H,1’H-[3,4′] bipyrazole] | 147.95 ± 1.32 µg/mL | 118.65 ± 1.03 µg/mL | 11.70 ± 0.29 µg/mL | 177 to 178 °C | 4.6 ± 0.06 µM | 
NC(=S)N1N=C(c2ccc(Cl)cc2)CC1c1cn(-c2ccccc2)nc1-c1ccc2ccccc2c1 (stereo not drawn) [Compound 6d] | 148.08 ± 1.36 µg/mL | >200 µg/mL | >200 µg/mL | 186 to 187 °C | 1.67 ± 0.03 µM | 
Clc1ccc(C2=NNC(c3cn(-c4ccccc4)nc3-c3ccc4ccccc4c3)C2)cc1 (stereo not drawn) [Compound 3d, 5-(4-Chlorophenyl)-3′-naphthalen-2-yl-1′-phenyl-3,4-dihydro-2H,1’H-[3,4′] bipyrazole] | >200 µg/mL | >200 µg/mL | >200 µg/mL | 190 to 191 °C |  | 
